Assay results as given in patent US5661146A, “Substituted dibenzoxazepine urea compounds, pharmaceutical compositions and methods of use” (G.D. Searle & Co., priority 1995, dated 1997).

Key:
mice = assay: Writhing Assay (PBQ-induced writhing, analgesic activity in mice); assay type: in vivo, mouse (Charles River male albino mice); conditions: among compounds of the invention tested
Description: The Writhing Assay is one of the most widely-used experimental procedures for measuring the analgesic activity of different narcotic and nonnarcotic analgesic agents, and involves the continuous, chemically-induced pain of visceral origin to an animal, such as a mouse or rat. [Gyires et al., Arch. int. […] Drugs which reduce the number of writhes of the animal appear to restore the normal nociceptive threshold of the animal. […] Charles River male albino mice, weighing 20 to 30 grams, were used in this assay. […] Ten mice which were given saline in place of a test compound of the invention were used as a control group. Five minutes later, each mouse was individually placed into a glass beaker for observation, and the number of writhes occurring during the following ten-minute period was counted. […] The standard initial screening dose of a test compound employed in this assay was 30 mpk […].

[1] = target: T1, prostaglandin E2 -induced contractions of segments of guinea pig ileum (Cavia porcellus, UniProt A0A286XHJ6); assay: Prostaglandin (PGE) Antagonism Assay (prostaglandin E2-induced contractions of guinea pig ileum segments); conditions: initial test compound concentration 3 micromolar
T1 construct: Segments of ileum about 2 cm long were then cut and mounted in a 10 mL tissue bath; from tissue; host or cells: ileum segments of male albino guinea pigs
T1 sequence (A0A286XHJ6 1-405): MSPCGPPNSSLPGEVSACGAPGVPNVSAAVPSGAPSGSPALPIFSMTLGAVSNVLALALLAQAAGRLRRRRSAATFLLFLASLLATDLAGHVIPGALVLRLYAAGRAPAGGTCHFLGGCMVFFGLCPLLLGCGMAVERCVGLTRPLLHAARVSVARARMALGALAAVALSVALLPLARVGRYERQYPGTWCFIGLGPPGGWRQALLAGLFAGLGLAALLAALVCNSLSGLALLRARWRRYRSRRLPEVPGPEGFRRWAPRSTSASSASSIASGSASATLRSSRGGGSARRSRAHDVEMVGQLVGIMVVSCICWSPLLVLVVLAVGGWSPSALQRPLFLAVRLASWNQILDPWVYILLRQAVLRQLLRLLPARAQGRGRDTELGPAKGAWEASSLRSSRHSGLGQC
Description: The ilea were then quickly removed from the guinea pigs and placed in a modified Tyrode solution, a solution which is known to those skilled in the art, containing one-half of the usual amount of magnesium ions. […] Data for a control prostaglandin E2 dose response curve plotting concentration of prostaglandin E2 versus the intensity of contractions, detected isotonically, was then obtained by experimentally adjusting the dose of the prostaglandin E2 being injected into the tissue bath, in a manner known by those of skill in the art. Solutions or suspensions containing an initial concentration (3 micromolar) of a test compound in modified Tyrode solution ("test solutions/suspensions") were then separately substituted for the control bath solution. Each test solution/suspension was then kept in constant contact with the ileum tissue, except for brief periods to drain the bath in preparation for rinsing with fresh test solution/suspension. A second prostaglandin E2 dose response curve was then generated for prostaglandin E2 in the presence of a test compound.

PGE IN GUINEA PIG ILEUM, dose ratio given as activity word [1] | Compound | potency ranking in the Writhing Assay (in words) (mice)
 | COC(=O)[C@H](C)NC(=O)N1Cc2ccccc2Oc2ccc(Cl)cc21 [Example 32, methyl (L)-2R-[[(8-chlorodibenz[b,f][1,4]oxazepine-10-(11H)-yl)carbonyl]amino]propanoate] | most potent compound of the invention tested in this assay
Active | CCN(CC)CCCCCOC(=O)N1Cc2ccccc2Oc2ccc(Cl)cc21 [Example 29, 5-(diethylamino)pentyl 8-chlorodibenz[b,f]-[1,4]oxazepine-10(11H)-carboxylate] | 
